Source: patent US5741917A, “Process for the preparation of acyloxyalkanesulfonates having improved properties” (Hoechst Aktiengesellschaft, priority 1995, dated 1998)

Conditions: deionized water

sodium C13 to C15 -acylisethionate [Example 4]
Water solubility (maximum concentration giving a clear solution): 10%
